Laboratory results reported in patent US5216124A, “Substituted cyclic tetrapeptides” (G. D. Searle & Co., priority 1991, dated 1993).
Entries after “also recorded” stand apart in the source; their conditions may differ. Where a name gives a salt, the structure may show the parent alone. Positions of bridges follow the written chain, without caps; N, C: chain ends. Non-standard residues stand in square brackets, D forms with d. Residues, ends and D or L forms follow the SMILES beside them. Dmt = Cc1cc(O)cc(C)c1C[C@H](N)C(=O)O; dPen = CC(C)(S)[C@@H](N)C(=O)O

Legend:
[1] = tested on: Charles River albino mice; assay: Hot Plate Assay (Hind Paw Lick Assay); type: in vivo, mouse
Source text: (§1) The "Tail Flick Assay" and the "Hot Plate Assay" (also known as the "Hind Paw Lick Assay") use thermal pain of transient duration, and are tests in which the pain threshold of the mice or rats being analyzed has not been altered. They are useful for evaluating the ability of a compound or drug to increase the animal's pain threshold (i.e. prolong response latencies), rather than to restore normal thresholds.
(§2) The heat-induced response to the Tail Flick Assay is a reflex reaction mediated at the level of the spinal cord. The heat-induced response to the Hot Plate Assay, however, is a more complex behavior requiring integration at higher centers in the brain. […]
(§3) Tail flick response latencies (defined as the time that elapsed between the onset of a high intensity beam of light and the reflex removal of the mouse or rat's tail) and hot plate response latencies (defined as the time that elapsed between the placement of a mouse or rat on a 55 degrees Celsius surface and a lick of the hind paw) were separately, but consecutively, measured before (baseline) and again at fixed intervals after subcutaneous or intracerebroventricular administration of one of the tetrapeptide compounds of the invention, the Methyl Ester Tetrapeptide, the Mosberg Tetrapeptide, or after the administration of saline (controls). […]

CD Charles River mice = assay: Writhing Assay (PBQ-induced writhing); type: in vivo, mouse; settings: for number of mice out of ten in which peptide was active, Intragastric: 10 mg/kg i.g., PBQ i.p. 15 min after dosing; for ED50 value, subcutaneous: s.c.
Source text: The "Writhing Assay" is one of the most widely-used experimental procedures for measuring the analgesic activity of different narcotic and nonnarcotic analgesic agents, and involves the continuous, chemically-induced pain of visceral origin to an animal, such as a mouse or rat. [Gyires et al., Arch. int. Pharmacodyn, 267, 131-140 (1984); C. Vander Wende et al., Fed. Proc., 15, 494 (1956); Koster et al., Fed. Proc., 18, 412 (1959); and Witken et al., J. Pharmacol. Exp. Ther., 133, 400-408 (1961). ] Chemicals which may be used to induce this pain include phenylbenzoquinone (PBQ) and acetic acid. As a result of the chemical irritation to the animal, a characteristic stretching and writhing of the animal (dorsiflexion of the animal's back, extension of its hindlimbs an the strong contraction of its abdominal musculature) will generally occur. […] Drugs which reduce the number of writhes of the animal appear to restore the normal nociceptive threshold of the animal.
This assay was conducted generally in the manner described by R. I. Taber, "Predictive Value of Analgesic Assays in Mice and Rats,"Advances in Biochemical Psychopharmacology, 8, 191 (1974). The Methyl Ester Tetrapeptide and Test Tetrapeptides Nos. 1, 3, 4, 5, 6, 7, 8 and 9 were tested in this assay.
Two hundred CD Charles River mice, weighing 20 to 30 grams were used in this assay.
Twenty-five minutes after subcutaneous administration, and fifteen minutes after intragastric administration, to the mice of 10 mg per kilogram of body weight of either a Test Tetrapeptide or the Methyl Ester Tetrapeptide, […] of body weight of a 0.025% w/v solution of PBQ was injected intraperitoneally into each mouse. Some mice were given saline in place of a Test Tetrapeptide or the Methyl Ester Tetrapeptide, and were used as a control group.
Five minutes later, each mouse was individually placed into a glass beaker for observation, and the number of writhes occurring during the following ten-minute period was counted.
A tetrapeptide compound was considered to be "active" (to have produced analgesia in a mouse) if, in accordance with the conditions set forth above, and under the test criteria employed for this assay, after the administration of 10 mg per kilogram of body weight of the tetrapeptide to the mouse, the number of writhes elicited by a mouse injected with PBQ was equal to, or less than, one-half the median number of writhes recorded for the saline-treated control group of mice that day, as described by R. I. Taber, supra.
The standard initial screening dose of a compound employed in this assay was 10 mg per kilogram (mpk) of body weight for both routes of administration. If this initial screening dose of the tetrapeptide produced analgesia in seven of ten mice, then the effect of additional doses of the tetrapeptide on the writhing response was evaluated, and then the ED50 value (that dose of a Test Tetrapeptide or the Methyl Ester Tetrapeptide which produced analgesia in 50% of the mice to which the tetrapeptide was administered) was generally calculated. A maximum likelihood function was used to determine the ED50 value. (The slopes of the dose-response curves for all tetrapeptides analyzed were compared as described by Tallarida and Murray, Manual of Pharmacologic Calculations, Page 11 (Springer Verlag, N.Y., 1981)).

δ opioid receptors = δ opioid receptors (Rattus norvegicus, UniProt P33533); assay: Opiate Binding Assay, displacement of 3[H]-DSLET
[2] = tested on: Charles River albino mice; assay: Tail Flick Assay; type: in vivo, mouse; settings: listed as Test Tetrapeptide No. 1, monohydrochloride
Source text: as §1, §2, §3

μ opioid receptors = μ opioid receptors (Rattus norvegicus, UniProt P33535); assay: Opiate Binding Assay, displacement of 3[H]-DAMPGO
Sequence of μ opioid receptors (P33535 whole entry): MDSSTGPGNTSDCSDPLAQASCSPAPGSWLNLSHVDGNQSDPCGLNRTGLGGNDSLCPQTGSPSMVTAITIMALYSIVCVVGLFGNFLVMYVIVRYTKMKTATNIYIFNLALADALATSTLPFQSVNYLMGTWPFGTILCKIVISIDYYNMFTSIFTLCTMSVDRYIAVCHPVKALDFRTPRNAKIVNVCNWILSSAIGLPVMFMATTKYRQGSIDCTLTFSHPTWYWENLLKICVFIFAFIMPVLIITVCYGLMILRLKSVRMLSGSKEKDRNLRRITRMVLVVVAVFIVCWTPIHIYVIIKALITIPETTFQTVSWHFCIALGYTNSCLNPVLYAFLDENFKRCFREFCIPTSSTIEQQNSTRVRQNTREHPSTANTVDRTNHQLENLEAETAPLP

Sequence of δ opioid receptors (P33533 whole entry): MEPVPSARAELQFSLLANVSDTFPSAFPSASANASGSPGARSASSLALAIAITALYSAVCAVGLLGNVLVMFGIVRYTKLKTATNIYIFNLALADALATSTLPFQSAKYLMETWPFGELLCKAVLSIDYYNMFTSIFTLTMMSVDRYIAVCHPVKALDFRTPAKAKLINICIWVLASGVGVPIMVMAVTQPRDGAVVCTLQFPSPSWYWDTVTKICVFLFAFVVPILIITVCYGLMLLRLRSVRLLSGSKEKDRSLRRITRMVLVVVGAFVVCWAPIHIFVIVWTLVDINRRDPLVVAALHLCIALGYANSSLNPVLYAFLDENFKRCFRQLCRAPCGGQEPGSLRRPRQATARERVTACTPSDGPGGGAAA

With `COC(=O)[C@@H]1NC(=O)[C@H](Cc2ccccc2)NC(=O)[C@H](NC(=O)[C@@H](N)Cc2c(C)cc(O)cc2C)CSSC1(C)C` [Example 25, 2,6-dimethyl-L-tyrosyl-D-cysteinyl-L-phenylalanyl-3-mercapto-D-valine, cyclic (2→4)-disulfide. methyl ester, monohydrochloride] (H-[Dmt][dC]F[dPen]-OMe; disulfide 2-4) the “activity (increase in hot plate latency), Intracerebroventricular” value ([1]; i.c.v., at 1.0 μg/kg) was “Active”, the “activity (increase in hot plate latency), Subcutaneous” value ([1]; s.c., at 100 mpk, listed as Test Tetrapeptide No. 1, monohydrochloride, 100 mg/kg) was “Active; also recorded: showed activity” and the “number of mice out of ten in which peptide was active, Intragastric” value (CD Charles River mice) was 3/10. For the same molecule, the “ED50 value, subcutaneous” value (CD Charles River mice) was 4.1 mg per kg of body weight, the “ED50 value, subcutaneous” value (CD Charles River mice; PBQ i.p. 25 min after dosing) was 4.1 mpk and the “Mean IC50 Value μ/δ Ratio” value (δ opioid receptors; ratio of mean IC50 μ to δ, above 1.0 = more specific for δ) was 1.2. For the same molecule, the “activity (increase in tail flick latency), Intracerebroventricular” value ([2]; i.c.v., at 1 μg/kg) was “active” and the “activity (increase in tail flick latency), Subcutaneous” value ([2]; s.c., at 100 mpk, 100 mg/kg) was “Active; also recorded: showed activity”.
`Cc1cc(O)cc(C)c1C[C@H](N)C(=O)N[C@@H]1CSSC(C)(C)[C@H](C(=O)O)NC(=O)[C@H](Cc2ccccc2)NC1=O` [Example 4, 2,6-dimethyl-L-tyrosyl-D-cysteinyl-L-phenylalanyl-3-mercapto-D-valine, cyclic (2→4)-disulfide] (H-[Dmt][dC]F[dPen]-OH; disulfide 2-4) showed an IC50 (δ opioid receptors) of 0.4 nM and an IC50 (μ opioid receptors) of 5.4 nM.
For “2,6-dimethyl-L-tyrosyl-D-cysteinyl-4-chloro-L-phenylalanyl-3-mercapto-D-valine, cyclic (2→4)-disulfide, methyl ester, monohydrochloride [Example 32]”, the “number of mice out of ten in which peptide was active, Intragastric” value (CD Charles River mice) was 4/10, the “number of mice out of ten in which peptide was active, Subcutaneous” value (CD Charles River mice; 10 mg/kg s.c., PBQ i.p. 25 min after dosing) was 4/10 and the “Percent Displacement (δ)” value (δ opioid receptors; at 100 nM, 3[H]-DSLET) was 44%. For the same molecule, the “Percent Displacement (μ)” value (μ opioid receptors; at 100 nM, 3[H]-DAMPGO) was 18%.
